Results published in patent US9611251B2, “Substituted piperidine compounds and their use as orexin receptor modulators” (Janssen Pharmaceutica NV, priority 2013, dated 2017).
Structures can show the parent of a compound that is named as a salt. Where two headings read alike, the source gives them in different places.

Experiments:
human orexin 1 receptor = human orexin 1 receptor (Homo sapiens, UniProt O43613); test: Human orexin 1 receptor radioligand binding
Description: The in vitro affinity of the compounds of the invention for the rat/human orexin 1 and human orexin 2 receptors was determined by competitive radioligand binding using [^3H](1-(5-(2-fluoro-phenyl)-2-methyl-thiazol-4-yl)-1-((S)-2-(5-phenyl-(1,3,4)oxadiazol-2-ylmethyl)-pyrrolidin-1-yl)-methanone) (Langmead et al., 2004) and [^3H]EMPA (n-ethyl-2[96-methoxypyridin-3-yl)-(toluene-2-sulfonyl)-amino]-N-pyridin-3-ylmethyl acetamide), respectively (Langmead et al., 2004, British Journal of Pharmacology 141:340-346; Malherbe et al., 2004, British Journal of Pharmacology 156:1326-41).
(§1) Data are analyzed using pc-Sandy macro and graphed on Graphpad Prism 5. For analysis, each concentration point is averaged from triplicate values and the averaged values are plotted on Graphpad Prism. The IC50 was determined by applying the following equation (GraphPad Prism 5.0, SanDiego) for one site competition where X=log (concentration) and Y=specific binding. Top denotes the total [^3H]-(1-(5-(2-fluoro-phenyl)-2-methyl-thiazol-4-yl)-1-((S)-2-(5-phenyl-(1,3,4)oxadiazol-2-ylmethyl)-pyrrolidin-1-yl)-methanone) binding, bottom denotes the nonspecific [^3H]-(1-(5-(2-fluoro-phenyl)-2-methyl-thiazol-4-yl)-1-((S)-2-(5-phenyl-(1,3,4)oxadiazol-2-ylmethyl)-pyrrolidin-1-yl)-methanone) binding. Graphpad Prism calculates Ki value from IC50 and the pre-determined Kd values for [^3H]-(1-(5-(2-fluoro-phenyl)-2-methyl-thiazol-4-yl)-1-((S)-2-(5-phenyl-(1,3,4)oxadiazol-2-ylmethyl)-pyrrolidin-1-yl)-methanone) and [3H]-EMPA. The Ki for each compound is then uploaded into 3DX. Each run comprises individual compounds in triplicate.
(§2) Rat and Human Orexin 1 Receptor Radioligand Binding Studies
Human Embryonic Kidney 293 cells (HEK293) stably expressing rat orexin 1 receptor (Genebank accession number NM_001525) or Chinese ovary cells (CHO) stably expressing human orexin 1 receptor (Genebank accession number NM_001526) were grown to confluency in DMEM (Hyclone, cat #SH30022), 10% FBS, 1×Pen/Strep, 1× sodium pyruvate, 10 mM HEPES, 600 μg/mL G418 and DMEM/F12 (Gibco, Cat #11039), 10% FBS, 1×Pen/Strep, 600 μg/mL G418 media, respectively on 150 cm^2 tissue culture plates, washed with 5 mM EDTA in PBS (HyClone Dulbecco's Phosphate Buffered Saline 1× with Calcium and Magnesium, Cat #SH30264.01, hereafter referred to simply as PBS) and scraped into 50 ml tubes. After centrifugation (2K×G, 5 min at 4° C.), the supernatant was aspirated and the pellets frozen and stored at −80° C. Cells were resuspended in PBS in the presence of 1 tablet of protease inhibitor cocktail (Roche, Cat. #11836145001) per 50 mL. Each cell pellet from a 15 cm plate was resuspended in 10 mL, stored on ice, and homogenized for 45 sec prior to addition to the reactions. Competition binding experiments in 96 well polypropylene plates were performed using [^3H]-(1-(5-(2-fluoro-phenyl)-2-methyl-thiazol-4-yl)-1-((S)-2-(5-phenyl-(1,3,4)oxadiazol-2-ylmethyl)-pyrrolidin-1-yl)-methanone) (Moraveck Corporation, specific activity=35.3 Ci/mmol), diluted to a 10 nM concentration in PBS (4 nM final). […] The final concentration of DMSO in the reactions is equal to or less than 0.1%. Total and nonspecific binding was determined in the absence and presence of 10 μM almorexant. The total volume of each reaction is 200 μL (20 μL of diluted compounds, 80 μL of [^3H]-(1-(5-(2-fluoro-phenyl)-2-methyl-thiazol-4-yl)-1-((S)-2-(5-phenyl-(1,3,4)oxadiazol-2-ylmethyl)-pyrrolidin-1-yl)-methanone) diluted in PBS and 100 μL of the cell suspension). Reactions were run for 60 min at room temperature and terminated by filtration through GF/C filter plates (PerkinElmer, Cat. #6005174) presoaked in 0.3% polyethylenimine using the cell harvester (PerkinElmer Filtermate). The plates were washed 3 times by aspirating 30 ml PBS through the plates. Plates were dried in 55° C. oven for 60 min, scintillation fluid was added, and the radioactivity was counted on a Topcount (Packard).

human orexin 2 receptor = human orexin 2 receptor (Homo sapiens (Human), UniProt O43614); test: Human orexin 2 receptor radioligand binding ([3H]-EMPA); details: averages of 2-20 runs, read-out: hOX2 Ki
Description: as §1
Human Orexin 2 Receptor Radioligand Binding Studies
HEK293 stably expressing human orexin 2 receptor (Genebank accession number NM_001526) were grown to confluency in DMEM (Hyclone, cat #SH30022), 10% FBS, 1×Pen/Strep, 1× NaPyruvate, 10 mM HEPES, 600 ug/ml G418 media on 150 cm^2 tissue culture plates, washed with 5 mM EDTA in PBS (HyClone Dulbecco's Phosphate Buffered Saline 1× with Calcium and Magnesium, Cat #SH30264.01, hereafter referred to simply as PBS) and scraped into 50 ml tubes. After centrifugation (2K×G, 5 min at 4° C.), the supernatant was aspirated and the pellets frozen and stored at −80° C. […] Each cell pellet from a 15 cm plate was resuspended in 10 mL, stored on ice, and homogenized for 45 sec just prior to addition to the reactions. Competition binding experiments in 96 well polypropylene plates were performed using [^3H]-EMPA (Moraveck Corporation, specific activity=29.6 Ci/mmol), diluted to a 5 nM concentration in PBS (2 nM final concentration). […] The final concentration of DMSO in the reactions is equal to or less than 0.1%. Total and nonspecific binding was determined in the absence and presence of 10 μM almorexant. The total volume of each reaction is 200 μL (20 μL of diluted compounds, 80 μL of [^3H]-EMPA diluted in PBS and 100 μL of the cell suspension). […] The plates were washed 3 times by aspirating 30 ml PBS through the plates. Plates were dried in 55° C. oven for 60 min, scintillation fluid was added, and the radioactivity was counted on a Topcount (Packard).

rat orexin 1 receptor = rat orexin 1 receptor (Rattus norvegicus, UniProt P56718); test: Rat orexin 1 receptor radioligand binding
Description: as §1, §2
After centrifugation (2K×G, 5 min at 4° C.), the supernatant was aspirated and the pellets frozen and stored at −80° C. […] Each cell pellet from a 15 cm plate was resuspended in 10 mL, stored on ice, and homogenized for 45 sec prior to addition to the reactions. Competition binding experiments in 96 well polypropylene plates were performed using [^3H]-(1-(5-(2-fluoro-phenyl)-2-methyl-thiazol-4-yl)-1-((S)-2-(5-phenyl-(1,3,4)oxadiazol-2-ylmethyl)-pyrrolidin-1-yl)-methanone) (Moraveck Corporation, specific activity=35.3 Ci/mmol), diluted to a 10 nM concentration in PBS (4 nM final). […] The final concentration of DMSO in the reactions is equal to or less than 0.1%. Total and nonspecific binding was determined in the absence and presence of 10 μM almorexant. The total volume of each reaction is 200 μL (20 μL of diluted compounds, 80 μL of [^3H]-(1-(5-(2-fluoro-phenyl)-2-methyl-thiazol-4-yl)-1-((S)-2-(5-phenyl-(1,3,4)oxadiazol-2-ylmethyl)-pyrrolidin-1-yl)-methanone) diluted in PBS and 100 μL of the cell suspension). […] The plates were washed 3 times by aspirating 30 ml PBS through the plates. Plates were dried in 55° C. oven for 60 min, scintillation fluid was added, and the radioactivity was counted on a Topcount (Packard).

[1] = human orexin 1 receptor radioligand binding, averages of 2-20 runs, read-out: hOX1 Ki
[2] = rat orexin 1 receptor radioligand binding, averages of 2-20 runs, read-out: rOX1 Ki

Sequence of human orexin 2 receptor (O43614 whole entry): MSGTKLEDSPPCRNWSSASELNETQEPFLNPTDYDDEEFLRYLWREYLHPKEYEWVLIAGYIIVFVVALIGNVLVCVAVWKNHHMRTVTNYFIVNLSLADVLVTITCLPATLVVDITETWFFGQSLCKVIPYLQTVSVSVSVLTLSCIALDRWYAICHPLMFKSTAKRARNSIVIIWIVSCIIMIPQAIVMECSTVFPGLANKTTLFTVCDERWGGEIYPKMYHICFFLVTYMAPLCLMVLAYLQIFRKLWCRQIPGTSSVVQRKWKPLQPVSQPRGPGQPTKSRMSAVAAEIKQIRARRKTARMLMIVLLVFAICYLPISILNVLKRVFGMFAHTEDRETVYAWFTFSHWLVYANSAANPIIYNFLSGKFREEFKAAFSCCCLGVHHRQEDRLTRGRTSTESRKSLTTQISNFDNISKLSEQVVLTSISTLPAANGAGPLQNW

Row | SMILES | Ki (human orexin 1 receptor; [1]) [nM] | Ki (human orexin 2 receptor) [µM] | Ki (rat orexin 1 receptor; [2]) [nM] | Ki (human orexin 1 receptor) [nM] | Ki (rat orexin 1 receptor) [nM]
1 | C[C@H]1[C@H](Oc2cnc(C(F)(F)F)cn2)CCCN1C(=O)c1cc(F)ccc1-c1ncco1 [Example 179, (5-fluoro-2-(oxazol-2-yl)phenyl)((2S,3R)-2-methyl-3-((5-(trifluoromethyl)pyrazin-2-yl)oxy)piperidin-1-yl)methanone] | 68 | 1.9 | 100 | – | –
2 | Cc1cnc(-n2nccn2)c(C(=O)N2CCC[C@@H](Oc3ccc(Cl)cn3)[C@@H]2C)c1 [Example 214, ((2S,3R)-3-((5-chloropyridin-2-yl)oxy)-2-methylpiperidin-1-yl)(5-methyl-2-(2H-1,2,3-triazol-2-yl)pyridin-3-yl)methanone] | 78 | 5.4 | 38 | – | –
3 | Cc1ccc(C(=O)N2CCC[C@@H](Oc3ccc(C(F)(F)F)cn3)[C@@H]2C)c(-n2nccn2)c1 [Example 112, (4-methyl-2-(2H-1,2,3-triazol-2-yl)phenyl)((2S,3R)-2-methyl-3-((5-(trifluoromethyl)pyridin-2-yl)oxy)piperidin-1-yl)methanone] | 11 | 0.664 | 7 | – | –
4 | Cc1ccc(C(=O)N2CCC[C@@H](N(C)c3ccc(C(F)(F)F)cn3)[C@@H]2C)c(-n2nccn2)n1 (relative stereo) [Example 188, (6-methyl-2-(2H-1,2,3-triazol-2-yl)pyridin-3-yl)((2S*,3R*)-2-methyl-3-(methyl(5-(trifluoromethyl)pyridin-2-yl)amino)piperidin-1-yl)methanone] | 100 | > 10 | 92 | – | –
5 | C[C@H]1[C@H](Nc2cnc(C(F)(F)F)cn2)CCCN1C(=O)c1ccc(F)cc1-c1ncco1 (relative stereo) [Example 208, (4-fluoro-2-(oxazol-2-yl)phenyl)((2S*,3R*)-2-methyl-3-((5-(trifluoromethyl)pyrazin-2-yl)amino)piperidin-1-yl)methanone] | 34 | 1.1 | 67 | – | –
6 | Cc1cnc(-c2ncccn2)c(C(=O)N2CCC[C@@H](Oc3ccc(C(F)(F)F)cn3)[C@@H]2C)c1 [Example 211, (5-methyl-2-(pyrimidin-2-yl)pyridin-3-yl)((2S,3R)-2-methyl-3-((5-(trifluoromethyl)pyridin-2-yl)oxy)piperidin-1-yl)methanone] | 124 | > 10 | 120 | – | –
7 | COc1ccc(-n2nccn2)c(C(=O)N2CCC[C@@H](Nc3ncc(C(F)(F)F)cn3)[C@@H]2C)c1 [Example 89, (5-methoxy-2-(2H-1,2,3-triazol-2-yl)phenyl)((2S,3R)-2-methyl-3-((5-(trifluoromethyl)pyrimidin-2-yl)amino)piperidin-1-yl)methanone] | 9 | 0.422 | 11 | – | –
8 | Cc1cnc(C(=O)N2CCC[C@@H](Oc3ccc(C(F)(F)F)cn3)[C@@H]2C)c(-n2nccn2)c1 [Example 111, ((2S,3R)-2-methyl-3-((5-(trifluoromethyl)pyridin-2-yl)oxy)piperidin-1-yl)(5-methyl-3-(2H-1,2,3-triazol-2-yl)pyridin-2-yl)methanone] | 31 | 5.1 | 22 | – | –
9 | COc1ccc(C(=O)N2CCC[C@@H](Nc3ccc(Cl)cn3)[C@@H]2C)c(-n2nccn2)c1 (relative stereo) [Example 181, ((2S*,3R*)-3-((5-chloropyridin-2-yl)amino)-2-methylpiperidin-1-yl)(4-methoxy-2-(2H-1,2,3-triazol-2-yl)phenyl)methanone] | 176 | 5.2 | 93 | – | –
10 | Cc1cnc(C(=O)N2CCC[C@@H](Oc3ccc(Cl)cn3)[C@@H]2C)c(-c2ncccn2)c1 [Example 216, ((2S,3R)-3-((5-chloropyridin-2-yl)oxy)-2-methylpiperidin-1-yl)(5-methyl-3-(pyrimidin-2-yl)pyridin-2-yl)methanone] | 89 | 8.2 | 52 | – | –
11 | Cc1cnc(C(=O)N2CCC[C@@H](Nc3cnc(Cl)cn3)[C@@H]2C)c(-n2nccn2)c1 (relative stereo) [Example 182, ((2S*,3R*)-3-((5-chloropyrazin-2-yl)amino)-2-methylpiperidin-1-yl)(5-methyl-3-(2H-1,2,3-triazol-2-yl)pyridin-2-yl)methanone] | 148 | – | 93 | – | –
12 | Cc1ccc(C(=O)N2CCC[C@@H](Nc3ccc(C(F)(F)F)cn3)[C@@H]2C)c(-n2nccn2)n1 [Example 98, (6-methyl-2-(2H-1,2,3-triazol-2-yl)pyridin-3-yl)((2S,3R)-2-methyl-3-((5-(trifluoromethyl)pyridin-2-yl)amino)piperidin-1-yl)methanone] | 21 | – | 24 | – | –
13 | Cc1ccc(-c2ncco2)c(C(=O)N2CCC[C@@H](Nc3ccc(C(F)(F)F)cn3)[C@@H]2C)n1 (racemic) [Example 22, (±)-trans-(2-methyl-3-((5-(trifluoromethyl)pyridin-2-yl)amino)piperidin-1-yl)(6-methyl-3-(oxazol-2-yl)pyridin-2-yl)methanone hydrochloride] | – | – | – | 21 | 36
